According to patent US12312334B2, “Quinoxaline compounds and uses thereof” (BOARD OF REGENTS OF THE UNIVERSITY OF NEBRASKA, priority 2017, dated 2025):
Where two headings read alike, the source gives them in different places. Blank lines part the entries; values can stand above or below the molecule they belong to.

Columns and labels:
SW620 = assay: growth inhibition assay, colon cancer cell line SW620; type: cell-based; conditions: Homo sapiens, SW-620
DLD1 = assay: growth inhibition assay, colon cancer cell line DLD1; type: cell-based; conditions: Homo sapiens, DLD-1
MiaPaCa2 = assay: growth inhibition assay, pancreatic cancer cell line MiaPaCa2; type: cell-based; conditions: Homo sapiens, MIA PaCa-2
S2013 = assay: growth inhibition assay, pancreatic cancer cell line S2013; type: cell-based
HT29 = assay: growth inhibition assay, colon cancer cell line HT29; type: cell-based; conditions: Homo sapiens, HT-29
Suit2 = assay: growth inhibition assay, pancreatic cancer cell line Suit2; type: cell-based; conditions: SUIT-2
[1] = in-vitro metabolic stability in human liver S9 fraction; type: in vitro ADME; conditions: for microsomal CLint / half-life: human liver S-9 fraction; for microsomal CLint: read-out: intrinsic clearance
Description: (§1) A metabolic stability profile, as well as oral and intravenous dose pharmacokinetics in mice was characterized. The in-vitro metabolic stability of 39-100 was determined using human liver S9 fraction (XenoTech, LLC, USA). 7-hydroxycoumarin (glucuronidation and sulphation) and testosterone (CYP hydroxylation) were used as positive controls for in-vitro metabolic stability study. The oral and intravenous dose pharmacokinetic studies were performed in Balb/c mice. The oral dose of 39-100 was 10 mg/kg, and the intravenous dose was 1 mg/kg. Sample analysis was performed by liquid chromatography-tandem mass spectrometry (SCIEX QTRAP 4000 LC-MS/MS System). For metabolite identification, samples were acquired by MRM-information dependent acquisition-enhanced product ion (MRM-IDA-EPI) scans, enhanced mass spectrometry-IDA-EPI scans, neutral loss, and precursor ion scan methods. Metabolites of 39-100 were characterized by Analyst 1.6.2, LightSight 2.3.1, and ChemDraw Professional-15 software.

AsPC1 = assay: growth inhibition assay, pancreatic cancer cell line AsPC1; type: cell-based; conditions: Homo sapiens
HCT116 = assay: growth inhibition assay, colon cancer cell line HCT116; type: cell-based; conditions: Homo sapiens, HCT-116
[2] = system: TNFα induced NFκB transcription activity; assay: cell-based TNFα induced IKKβ mediated NFκB activation luciferase reporter assay; parameters: TNFα induced NFκB transcription activity % Inhibition: concentration or dose not given beside the values
Description: Compound 13-197 has a structure:

[3] = oral and intravenous dose pharmacokinetics in mice; type: in vivo, Balb/c mice; conditions: for MRT inf: read-out: MRT 0-∞
Description: as §1

HCT116 cancer cells = assay: HCT116 colon tumor xenograft growth inhibition study; type: in vivo; conditions: HCT116 xenograft in athymic mice, 40 mg/kg for 2 weeks, preliminary results
Description: Colon tumor xenografts were established in immune deficient (athymic: 4-6 weeks old) mice. Briefly, exponentially growing (70-80% confluent) HCT116 cancer cells were trypsinized, counted using a hemocytometer and stained with trypan blue to ensure only healthy cells are counted. Cells in suspension were added to matrigel and 4×10^6 cells/100 μl of volume were injected into the flanks of mice. Post-injection, mice were monitored on a daily basis to determine tumor growth. The tumor onset and progression was examined through palpation. Tumor diameter was measured using digital calipers and the tumor volume (in mm^3) was calculated using the formula=(width)^2×length/2. Mice were randomly separated into two groups and were dosed with either vehicle or 40 mg/kg of 39-100 for 2 weeks.

[4] = Balb/c, mouse, plasma, Oral: 10 mg/kg

GI50 (SW620): 9.2 ± 2.5 µM
GI50 (DLD1): 10.9 ± 2.1 µM
GI50 (MiaPaCa2): 10 ± 2.2 µM
GI50 (S2013): 9.1 ± 1.1 µM
GI50 (HT29): 6.7 ± 1 µM
GI50 (Suit2): 10.7 ± 0.5 µM
microsomal CLint ([1]; human liver S9 fraction): 12.2 µL/min/mg
half-life [1]: 0.95 h
GI50 (AsPC1): 12 ± 4 µM
GI50 (HCT116): 8.8 ± 2.2 µM
Structure (SMILES): O=C(Nc1ccc(Br)cc1)Nc1ccc2nc(-c3ccco3)c(-c3ccco3)nc2c1 [13-197, reference compound]
TNFα induced NFκB transcription activity % Inhibition [2]: 32.9 ± 3.4%

Structure (SMILES): O=C(Nc1ccc(Br)cc1)Nc1ccc2ncc(-c3cn[nH]c3)nc2c1 [39-09D]
TNFα induced NFκB transcription activity % Inhibition [2]: 48.4 ± 2.8%

Structure (SMILES): Cn1cc(-c2cnc3ccc(NC(=O)Nc4ccc(Br)cc4)cc3n2)cn1 [39-055]
TNFα induced NFκB transcription activity % Inhibition [2]: 71.0 ± 4.8%

Structure (SMILES): Cn1cc(-c2cnc3cc(NC(=O)Nc4ccc(Br)cc4)ccc3n2)cn1 [39-061]
TNFα induced NFκB transcription activity % Inhibition [2]: 40.7 ± 2.9%

Structure (SMILES): Cn1ccc(-c2cnc3ccc(NC(=O)Nc4ccc(Br)cc4)cc3n2)n1 [39-062]
TNFα induced NFκB transcription activity % Inhibition [2]: 33.0 ± 5.7%

Structure (SMILES): Cn1cc(-c2cnc3ccc(NC(=O)Nc4ccc(F)cc4)cc3n2)cn1 [39-066]
TNFα induced NFκB transcription activity % Inhibition [2]: 42.9 ± 9.8%

Structure (SMILES): Cn1cc(-c2cnc3ccc(NC(=O)Nc4ccccc4)cc3n2)cn1 [39-071]
TNFα induced NFκB transcription activity % Inhibition [2]: 31.2 ± 7.6%

Structure (SMILES): Cn1ccc(-c2cnc3cc(NC(=O)Nc4ccc(Br)cc4)ccc3n2)n1 [39-072]
TNFα induced NFκB transcription activity % Inhibition [2]: 46.8 ± 4.4%

Structure (SMILES): Cn1cc(-c2cnc3ccc(NC(=O)Cc4ccc(Br)cc4)cc3n2)cn1 [39-076]
TNFα induced NFκB transcription activity % Inhibition [2]: 36.1 ± 8.8%

Structure (SMILES): Cc1nn(C)cc1-c1cnc2ccc(NC(=O)Nc3ccc(Br)cc3)cc2n1 [39-077]
TNFα induced NFκB transcription activity % Inhibition [2]: 37.7 ± 5.1%

Structure (SMILES): Cn1cc(-c2cnc3ccc(NC(=O)Nc4ccc([N+](=O)[O-])cc4)cc3n2)cn1 [39-084]
TNFα induced NFκB transcription activity % Inhibition [2]: 36.4 ± 6.3%

Structure (SMILES): Cc1ccc(NC(=O)Nc2ccc3ncc(-c4cnn(C)c4)nc3c2)cc1 [39-085]
TNFα induced NFκB transcription activity % Inhibition [2]: 53.0 ± 2.9%

Structure (SMILES): Cn1cc(-c2cnc3ccc(NC(=O)Nc4cccc(Br)c4)cc3n2)cn1 [39-086]
TNFα induced NFκB transcription activity % Inhibition [2]: 88.9 ± 1.8%

GI50 (SW620): 8.4 ± 2.3 µM
GI50 (DLD1): 8.4 ± 2.3 µM
MRT inf ([3]; Balb/c, mouse, plasma, IV: 1 mg/kg): 1.4 h
half-life ([3]; Balb/c, mouse, plasma, IV: 1 mg/kg, read-out: t0.5 (elimination half-life) (converted)): 3.9 h
AUC(0-t) [3, 4]: 12400 ng·h/mL
CL/F [3, 4]: 13.3 mL/min/kg
Cmax [3, 4]: 2330 ng/mL
Tmax [3, 4]: 2 h
bioavailability ([3]; Balb/c, mouse, plasma, Oral: 10 mg/kg vs IV: 1 mg/kg): 208%
MRT inf [3, 4]: 3.9 h
AUC(0-inf) ([3]; Balb/c, mouse, plasma, intravenous dose 1 mg/kg, read-out: area under the curve (AUC0-∞)): 598 ng·h/mL
MRT ([3]; Balb/c, mouse, plasma, intravenous dose 1 mg/kg, read-out: mean residence time (MRT)): 1.4 h
AUC(0-inf) ([3]; Balb/c, mouse, plasma, oral administration 10 mg/kg, read-out: AUC0-∞): 12400 ng·h/mL
MRT ([3]; Balb/c, mouse, plasma, oral administration 10 mg/kg, read-out: MRT): 3.9 h
C0-iv ([3]; IV: 1 mg/kg): 709.9 ng/mL
CL/F (clearance) ([3]; IV: 1 mg/kg): 27.8 mL/min/kg
λZ ([3]; IV: 1 mg/kg): 0.177 h⁻¹
t0.5 ([3]; Oral: 10 mg/kg): 2.35 h
λZ ([3]; Oral: 10 mg/kg): 0.295 h⁻¹
GI50 (MiaPaCa2): 3.2 ± 0.3 µM
GI50 (S2013): 4.1 ± 0.5 µM
GI50 (HT29): 3.1 ± 0.2 µM
GI50 (Suit2): 4.5 ± 0.4 µM
parent compound present ([1]; human liver S9 fraction, 60-minute incubation): More than 85%
microsomal CLint ([1]; human liver S9 fraction): 1.59 µL/min/mg
half-life [1]: 7.273 h
GI50 (AsPC1): 7.2 ± 2.6 µM
GI50 (HCT116): 3.8 ± 1.2 µM
Structure (SMILES): Cn1cc(-c2cnc3ccc(NC(=O)Nc4ccc(F)c(Br)c4)cc3n2)cn1 [39-100]
colon tumor growth (HCT116 cancer cells): reduced colon tumorgrowth
metabolites detected ([1]; metabolite identification by LC-MS/MS, matrix not stated): In very small fraction glucuronidation, sulfonation, and demethylation
TNFα induced NFκB transcription activity % Inhibition [2]: 83.8 ± 1.6%
potency relative to 13-197 ([2]; all the assays tested (FIG. 1 and FIG. 2)): more potent than 13-197

Structure (SMILES): Cn1cc(-c2cnc3ccc(NC(=O)Nc4ccccc4Br)cc3n2)cn1 [39-102]
TNFα induced NFκB transcription activity % Inhibition [2]: 62.4 ± 1.2%

Structure (SMILES): Cn1cc(-c2cnc3ccc(NC(=O)Nc4ccc(F)c(C(F)(F)F)c4)cc3n2)cn1 [42-062]
TNFα induced NFκB transcription activity % Inhibition [2]: 83.7 ± 0.3%

Structure (SMILES): Cn1cc(-c2cnc3ccc(NC(=O)Nc4cccc(Cl)c4)cc3n2)cn1 [42-064]
TNFα induced NFκB transcription activity % Inhibition [2]: 96.3 ± 1.5%

Structure (SMILES): Cn1cc(-c2cnc3ccc(NC(=O)Nc4ccc(F)c(Cl)c4)cc3n2)cn1 [42-065]
TNFα induced NFκB transcription activity % Inhibition [2]: 85.3 ± 2.8%

Structure (SMILES): Cc1cccc(NC(=O)Nc2ccc3ncc(-c4cnn(C)c4)nc3c2)c1 [42-066]
TNFα induced NFκB transcription activity % Inhibition [2]: Inactive

Structure (SMILES): Cn1cc(-c2cnc3ccc(NC(=O)Nc4cccc(C(F)(F)F)c4)cc3n2)cn1 [42-071]
TNFα induced NFκB transcription activity % Inhibition [2]: 80.5 ± 2.5%

Structure (SMILES): Cn1cc(-c2cnc3ccc(NC(=O)Nc4ccc5c(c4)OCO5)cc3n2)cn1 [42-072]
TNFα induced NFκB transcription activity % Inhibition [2]: inactive

Structure (SMILES): Cn1cc(-c2cnc3ccc(NC(=O)Nc4ccc5c(c4)OCCO5)cc3n2)cn1 [42-073]
TNFα induced NFκB transcription activity % Inhibition [2]: inactive

Structure (SMILES): Cc1cc(NC(=O)Nc2ccc3ncc(-c4cnn(C)c4)nc3c2)ccc1F [42-074]
TNFα induced NFκB transcription activity % Inhibition [2]: 10.4 ± 3.9%

Structure (SMILES): COc1cccc(NC(=O)Nc2ccc3ncc(-c4cnn(C)c4)nc3c2)c1 [42-076]
TNFα induced NFκB transcription activity % Inhibition [2]: 49.7 ± 2.6%

Structure (SMILES): Cn1cc(-c2cnc3ccc(NC(=O)Nc4ccc5sccc5c4)cc3n2)cn1 [42-077]
TNFα induced NFκB transcription activity % Inhibition [2]: inactive

Structure (SMILES): COc1cc(NC(=O)Nc2ccc3ncc(-c4cnn(C)c4)nc3c2)ccc1F [42-078]
TNFα induced NFκB transcription activity % Inhibition [2]: 33.5 ± 3.7%

Structure (SMILES): Cn1cc(-c2cnc3ccc(NC(=O)Nc4cccc(OC(F)(F)F)c4)cc3n2)cn1 [42-81B]
TNFα induced NFκB transcription activity % Inhibition [2]: 60.9 ± 2.9%

Structure (SMILES): Cn1cc(-c2cnc3ccc(NC(=O)Nc4ccc5c(c4)CCC5)cc3n2)cn1 [42-091]
TNFα induced NFκB transcription activity % Inhibition [2]: inactive

Structure (SMILES): Cn1cc(-c2cnc3ccc(NC(=O)Nc4ccc(F)c(OC(F)(F)F)c4)cc3n2)cn1 [42-096]
TNFα induced NFκB transcription activity % Inhibition [2]: 64.6 ± 3.3%

Structure (SMILES): Cn1cc(-c2cnc3ccc(NC(=O)Nc4ccc5c(c4)CCO5)cc3n2)cn1 [42-097]
TNFα induced NFκB transcription activity % Inhibition [2]: inactive
